# Laboratory results published in PMC11864979, “First-in-class ultralong-target-residence-time p38α inhibitors as a mitosis-targeted therapy for colorectal cancer” (Nature Cancer, 2025).
# Read-outs that look alike come from different tables or passages of the source.
# Legend:
# Assay in all cases: selectivity profiling in a panel of 340 wild-type kinases (Reaction Biology Europe)
# Type in all cases: binding
# [1] = molecular target: T1, 340 wild-type kinases (Homo sapiens, UniProt Q8NG66)
# T1 construct: purchased Reaction Biology Europe
# T1 sequence (Q8NG66 1-645): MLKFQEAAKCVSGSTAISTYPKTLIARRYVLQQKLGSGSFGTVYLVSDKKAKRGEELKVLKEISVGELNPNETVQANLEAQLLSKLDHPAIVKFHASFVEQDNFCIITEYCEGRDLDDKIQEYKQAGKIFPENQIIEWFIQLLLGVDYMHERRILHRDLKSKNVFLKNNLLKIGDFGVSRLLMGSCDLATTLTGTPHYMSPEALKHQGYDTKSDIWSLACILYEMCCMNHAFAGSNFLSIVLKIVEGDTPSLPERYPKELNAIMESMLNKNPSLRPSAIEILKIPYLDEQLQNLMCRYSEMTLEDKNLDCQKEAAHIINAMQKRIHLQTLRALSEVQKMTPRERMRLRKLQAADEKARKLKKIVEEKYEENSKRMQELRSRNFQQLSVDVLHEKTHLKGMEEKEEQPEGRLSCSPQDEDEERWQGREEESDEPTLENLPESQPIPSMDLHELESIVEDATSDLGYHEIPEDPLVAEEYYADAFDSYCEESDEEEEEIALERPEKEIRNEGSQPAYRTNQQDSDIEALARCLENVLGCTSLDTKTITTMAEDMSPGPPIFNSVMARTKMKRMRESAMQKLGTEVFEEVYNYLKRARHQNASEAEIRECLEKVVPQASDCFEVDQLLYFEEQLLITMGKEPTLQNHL
# [2] = molecular target: T2, 340 wild-type kinases (Homo sapiens, UniProt P27448)
# T2 construct: purchased Reaction Biology Europe
# T2 sequence (P27448 whole entry): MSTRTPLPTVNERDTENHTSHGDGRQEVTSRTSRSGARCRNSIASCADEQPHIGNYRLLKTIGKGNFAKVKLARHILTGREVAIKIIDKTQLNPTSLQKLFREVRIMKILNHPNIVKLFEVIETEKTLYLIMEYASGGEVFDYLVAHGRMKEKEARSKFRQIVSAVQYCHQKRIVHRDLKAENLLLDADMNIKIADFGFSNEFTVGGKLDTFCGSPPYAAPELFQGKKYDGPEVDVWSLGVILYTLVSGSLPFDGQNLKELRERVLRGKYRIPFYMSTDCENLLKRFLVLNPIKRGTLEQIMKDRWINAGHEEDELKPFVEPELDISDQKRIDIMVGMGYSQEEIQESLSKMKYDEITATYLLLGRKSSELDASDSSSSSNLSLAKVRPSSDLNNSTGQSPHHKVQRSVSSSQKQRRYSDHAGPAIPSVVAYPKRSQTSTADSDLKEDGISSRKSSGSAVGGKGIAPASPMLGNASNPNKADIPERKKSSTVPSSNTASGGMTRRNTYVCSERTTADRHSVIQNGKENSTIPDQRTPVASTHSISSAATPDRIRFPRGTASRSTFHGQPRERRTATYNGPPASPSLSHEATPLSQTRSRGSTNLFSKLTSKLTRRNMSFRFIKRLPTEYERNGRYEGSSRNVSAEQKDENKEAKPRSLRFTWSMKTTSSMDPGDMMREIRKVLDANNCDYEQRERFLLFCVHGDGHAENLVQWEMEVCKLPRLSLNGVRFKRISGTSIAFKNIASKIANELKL
# [3] = molecular target: T3, 340 wild-type kinases (Homo sapiens, UniProt Q86Z02)
# T3 construct: purchased Reaction Biology Europe
# T3 sequence (Q86Z02 whole entry): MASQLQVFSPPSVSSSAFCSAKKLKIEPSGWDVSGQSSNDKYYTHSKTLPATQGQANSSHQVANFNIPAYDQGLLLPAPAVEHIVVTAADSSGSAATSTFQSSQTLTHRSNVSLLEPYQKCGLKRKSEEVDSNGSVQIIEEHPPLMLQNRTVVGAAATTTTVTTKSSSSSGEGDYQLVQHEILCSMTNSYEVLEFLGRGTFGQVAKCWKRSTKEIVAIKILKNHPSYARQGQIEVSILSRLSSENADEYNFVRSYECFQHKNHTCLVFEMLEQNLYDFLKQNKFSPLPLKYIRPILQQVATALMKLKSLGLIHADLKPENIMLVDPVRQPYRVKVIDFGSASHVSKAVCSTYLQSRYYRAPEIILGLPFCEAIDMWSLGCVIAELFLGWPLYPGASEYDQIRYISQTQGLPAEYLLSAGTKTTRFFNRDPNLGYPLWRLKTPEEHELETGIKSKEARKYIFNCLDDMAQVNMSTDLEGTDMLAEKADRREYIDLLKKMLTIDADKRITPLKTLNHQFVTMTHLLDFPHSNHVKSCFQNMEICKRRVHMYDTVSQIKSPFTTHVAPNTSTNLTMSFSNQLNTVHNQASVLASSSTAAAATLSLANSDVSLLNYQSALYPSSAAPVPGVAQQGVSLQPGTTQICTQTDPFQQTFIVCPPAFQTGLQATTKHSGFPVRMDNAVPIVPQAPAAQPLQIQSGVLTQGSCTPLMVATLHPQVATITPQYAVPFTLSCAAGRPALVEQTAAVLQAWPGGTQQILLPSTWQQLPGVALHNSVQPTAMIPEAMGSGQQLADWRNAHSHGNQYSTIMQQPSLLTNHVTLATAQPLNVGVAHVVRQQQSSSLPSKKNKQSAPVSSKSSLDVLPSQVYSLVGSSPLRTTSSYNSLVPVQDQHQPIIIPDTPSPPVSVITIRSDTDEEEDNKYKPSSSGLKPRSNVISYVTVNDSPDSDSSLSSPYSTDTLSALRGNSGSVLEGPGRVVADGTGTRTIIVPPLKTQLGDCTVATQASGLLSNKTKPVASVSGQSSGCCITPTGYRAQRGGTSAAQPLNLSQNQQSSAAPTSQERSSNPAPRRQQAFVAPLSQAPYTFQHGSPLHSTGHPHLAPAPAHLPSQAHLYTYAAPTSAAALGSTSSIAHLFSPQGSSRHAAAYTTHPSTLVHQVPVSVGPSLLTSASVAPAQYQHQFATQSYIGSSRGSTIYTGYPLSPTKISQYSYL
# [4] = molecular target: T4, 340 wild-type kinases (Homo sapiens, UniProt O75676)
# T4 construct: purchased Reaction Biology Europe
# T4 sequence (O75676 whole entry): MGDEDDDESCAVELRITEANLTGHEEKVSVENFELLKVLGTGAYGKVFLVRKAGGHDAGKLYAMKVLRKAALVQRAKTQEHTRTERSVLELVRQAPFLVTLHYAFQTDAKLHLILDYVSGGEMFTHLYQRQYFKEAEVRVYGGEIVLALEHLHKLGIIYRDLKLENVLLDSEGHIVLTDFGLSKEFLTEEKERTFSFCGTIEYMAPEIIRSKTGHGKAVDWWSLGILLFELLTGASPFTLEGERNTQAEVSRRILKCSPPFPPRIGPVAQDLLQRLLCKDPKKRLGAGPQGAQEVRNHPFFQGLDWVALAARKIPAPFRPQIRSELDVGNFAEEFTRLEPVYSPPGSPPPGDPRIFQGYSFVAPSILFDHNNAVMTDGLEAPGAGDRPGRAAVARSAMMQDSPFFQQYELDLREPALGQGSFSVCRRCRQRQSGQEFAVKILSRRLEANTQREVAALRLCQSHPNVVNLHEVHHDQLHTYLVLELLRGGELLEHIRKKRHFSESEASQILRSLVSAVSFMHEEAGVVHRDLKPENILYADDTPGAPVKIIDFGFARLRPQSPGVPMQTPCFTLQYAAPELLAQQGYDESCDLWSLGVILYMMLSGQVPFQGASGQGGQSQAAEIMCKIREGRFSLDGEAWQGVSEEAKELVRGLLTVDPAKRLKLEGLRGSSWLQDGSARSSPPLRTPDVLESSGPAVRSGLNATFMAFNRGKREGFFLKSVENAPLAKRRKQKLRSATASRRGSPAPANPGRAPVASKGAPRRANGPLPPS
# [5] = molecular target: T5, 340 wild-type kinases (Homo sapiens, UniProt Q14289)
# T5 construct: purchased Reaction Biology Europe
# T5 sequence (Q14289 whole entry): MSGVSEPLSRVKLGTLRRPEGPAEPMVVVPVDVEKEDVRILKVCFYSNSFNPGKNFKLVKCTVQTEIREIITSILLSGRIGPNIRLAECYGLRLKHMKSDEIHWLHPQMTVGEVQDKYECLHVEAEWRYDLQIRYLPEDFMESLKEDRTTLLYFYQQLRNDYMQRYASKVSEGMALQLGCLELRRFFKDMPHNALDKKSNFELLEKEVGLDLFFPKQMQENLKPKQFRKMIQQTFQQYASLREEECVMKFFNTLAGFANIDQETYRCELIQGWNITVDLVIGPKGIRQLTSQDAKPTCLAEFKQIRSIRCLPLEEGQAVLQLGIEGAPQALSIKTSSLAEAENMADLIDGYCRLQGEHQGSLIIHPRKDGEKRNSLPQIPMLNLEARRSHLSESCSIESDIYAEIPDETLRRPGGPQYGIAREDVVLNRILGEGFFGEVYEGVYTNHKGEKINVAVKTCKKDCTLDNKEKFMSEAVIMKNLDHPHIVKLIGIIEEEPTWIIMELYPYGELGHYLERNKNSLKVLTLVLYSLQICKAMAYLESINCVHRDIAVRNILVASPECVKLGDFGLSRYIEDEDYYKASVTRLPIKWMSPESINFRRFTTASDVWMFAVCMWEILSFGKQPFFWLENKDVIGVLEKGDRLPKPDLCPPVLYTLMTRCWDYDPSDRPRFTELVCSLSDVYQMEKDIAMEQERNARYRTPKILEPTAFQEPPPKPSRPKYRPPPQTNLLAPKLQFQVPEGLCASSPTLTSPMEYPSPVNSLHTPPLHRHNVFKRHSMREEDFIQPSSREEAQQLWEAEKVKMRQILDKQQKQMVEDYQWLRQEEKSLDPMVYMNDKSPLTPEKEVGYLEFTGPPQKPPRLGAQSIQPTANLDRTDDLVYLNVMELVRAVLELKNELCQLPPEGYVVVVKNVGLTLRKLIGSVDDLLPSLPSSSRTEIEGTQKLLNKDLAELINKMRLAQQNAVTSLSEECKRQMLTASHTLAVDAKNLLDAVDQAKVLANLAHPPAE
# [6] = molecular target: T6, 340 wild-type kinases (Homo sapiens, UniProt Q9UF33)
# T6 construct: purchased Reaction Biology Europe
# T6 sequence (Q9UF33 23-1036): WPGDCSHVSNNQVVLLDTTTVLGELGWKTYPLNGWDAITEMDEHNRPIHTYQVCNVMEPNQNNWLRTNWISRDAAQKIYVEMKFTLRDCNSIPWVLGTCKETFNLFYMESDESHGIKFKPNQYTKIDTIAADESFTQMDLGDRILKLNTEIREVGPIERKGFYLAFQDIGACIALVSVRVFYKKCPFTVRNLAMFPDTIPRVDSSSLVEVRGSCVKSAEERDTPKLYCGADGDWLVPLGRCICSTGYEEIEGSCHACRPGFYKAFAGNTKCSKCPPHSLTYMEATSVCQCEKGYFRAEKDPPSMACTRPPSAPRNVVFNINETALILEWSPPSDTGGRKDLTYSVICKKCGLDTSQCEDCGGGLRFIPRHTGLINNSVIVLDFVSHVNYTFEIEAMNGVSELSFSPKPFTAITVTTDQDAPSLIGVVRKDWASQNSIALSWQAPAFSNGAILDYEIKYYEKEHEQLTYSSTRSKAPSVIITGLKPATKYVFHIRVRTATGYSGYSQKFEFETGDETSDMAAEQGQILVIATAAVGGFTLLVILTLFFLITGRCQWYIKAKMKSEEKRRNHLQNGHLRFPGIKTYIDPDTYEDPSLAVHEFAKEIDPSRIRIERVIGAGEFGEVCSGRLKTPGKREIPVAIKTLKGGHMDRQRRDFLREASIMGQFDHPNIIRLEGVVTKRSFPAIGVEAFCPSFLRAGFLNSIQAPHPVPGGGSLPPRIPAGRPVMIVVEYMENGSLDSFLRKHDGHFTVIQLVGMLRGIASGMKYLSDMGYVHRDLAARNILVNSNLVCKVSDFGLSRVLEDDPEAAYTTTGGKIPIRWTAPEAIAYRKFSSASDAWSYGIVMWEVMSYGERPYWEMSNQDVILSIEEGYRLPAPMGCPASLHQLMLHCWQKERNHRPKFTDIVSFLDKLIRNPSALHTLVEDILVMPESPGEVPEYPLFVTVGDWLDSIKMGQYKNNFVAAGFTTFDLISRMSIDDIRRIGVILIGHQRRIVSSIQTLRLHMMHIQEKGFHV
# [7] = molecular target: T7, 340 wild-type kinases (Homo sapiens, UniProt Q9H1R3)
# T7 construct: purchased Reaction Biology Europe
# T7 sequence (Q9H1R3 whole entry): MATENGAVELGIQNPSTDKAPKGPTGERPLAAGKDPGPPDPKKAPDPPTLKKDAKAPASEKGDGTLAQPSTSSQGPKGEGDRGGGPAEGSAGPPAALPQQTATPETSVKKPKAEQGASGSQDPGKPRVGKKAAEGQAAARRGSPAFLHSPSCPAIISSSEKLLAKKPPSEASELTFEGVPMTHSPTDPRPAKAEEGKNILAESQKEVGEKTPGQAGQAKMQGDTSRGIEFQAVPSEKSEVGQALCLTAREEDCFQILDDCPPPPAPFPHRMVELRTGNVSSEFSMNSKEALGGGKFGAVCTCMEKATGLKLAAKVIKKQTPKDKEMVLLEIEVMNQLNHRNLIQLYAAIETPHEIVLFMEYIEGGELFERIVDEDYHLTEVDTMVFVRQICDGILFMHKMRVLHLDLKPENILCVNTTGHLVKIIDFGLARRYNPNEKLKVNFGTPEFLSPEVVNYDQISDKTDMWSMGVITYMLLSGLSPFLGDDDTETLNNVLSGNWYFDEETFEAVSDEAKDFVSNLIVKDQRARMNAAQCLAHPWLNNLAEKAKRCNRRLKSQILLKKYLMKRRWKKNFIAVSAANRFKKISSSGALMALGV
# [8] = molecular target: T8, 340 wild-type kinases (Homo sapiens, UniProt P36894)
# T8 construct: purchased Reaction Biology Europe
# T8 sequence (P36894 24-532): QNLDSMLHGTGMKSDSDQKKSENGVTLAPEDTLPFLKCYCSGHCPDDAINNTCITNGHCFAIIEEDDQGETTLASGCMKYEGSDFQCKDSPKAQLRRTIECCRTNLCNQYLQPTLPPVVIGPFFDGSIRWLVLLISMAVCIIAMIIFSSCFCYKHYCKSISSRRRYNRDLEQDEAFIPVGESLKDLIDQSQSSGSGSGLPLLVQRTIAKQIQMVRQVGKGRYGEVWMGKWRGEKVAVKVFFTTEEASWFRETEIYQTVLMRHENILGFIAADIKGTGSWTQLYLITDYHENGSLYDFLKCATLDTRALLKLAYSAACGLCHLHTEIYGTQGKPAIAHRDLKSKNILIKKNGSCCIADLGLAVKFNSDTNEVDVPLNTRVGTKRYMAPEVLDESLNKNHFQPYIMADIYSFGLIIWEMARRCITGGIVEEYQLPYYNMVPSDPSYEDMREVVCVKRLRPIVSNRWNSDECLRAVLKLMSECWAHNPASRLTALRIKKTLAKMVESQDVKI
compound,measurement,setting,value
CNC(=O)c1ccc2c(c1)C(=O)c1ccc(Nc3ccc(F)c(NC(=O)C4CC4)c3)cc1CC2 [Compound 2015],remaining activity at 1 µM,"[1]; 1 µM 2015, read-out: NEK11 residual activity",95.8%
same,remaining activity at 0.2 µM,"[1]; NEK11, 0.2 µM, read-out: residual activity",91.3%
same,remaining activity at 1 µM,"[1]; NEK11, 1 µM, read-out: residual activity",95.8%
same,remaining activity at 0.2 µM,"[2]; 0.2 µM 2015, read-out: MARK3 residual activity",117%
same,remaining activity at 1 µM,"[2]; 1 µM 2015, read-out: MARK3 residual activity",100%
same,remaining activity at 0.2 µM,"[2]; MARK3, 0.2 µM, read-out: residual activity",117%
same,remaining activity at 1 µM,"[2]; MARK3, 1 µM, read-out: residual activity",100%
same,remaining activity at 0.2 µM,"[3]; 0.2 µM 2015, read-out: HIPK1 residual activity",98.9%
same,remaining activity at 1 µM,"[3]; 1 µM 2015, read-out: HIPK1 residual activity",102%
same,remaining activity at 0.2 µM,"[3]; HIPK1, 0.2 µM, read-out: residual activity",98.9%
same,remaining activity at 1 µM,"[3]; HIPK1, 1 µM, read-out: residual activity",102%
same,remaining activity at 0.2 µM,"[4]; 0.2 µM 2015, read-out: RPS6KA4 residual activity",95.3%
same,remaining activity at 1 µM,"[4]; 1 µM 2015, read-out: RPS6KA4 residual activity",89.4%
same,remaining activity at 0.2 µM,"[4]; RPS6KA4, 0.2 µM, read-out: residual activity",95.3%
same,remaining activity at 1 µM,"[4]; RPS6KA4, 1 µM, read-out: residual activity",89.4%
same,remaining activity at 0.2 µM,"[5]; 0.2 µM 2015, read-out: PYK2 residual activity",98.8%
same,remaining activity at 1 µM,"[5]; 1 µM 2015, read-out: PYK2 residual activity",86.1%
same,remaining activity at 0.2 µM,"[5]; PYK2, 0.2 µM, read-out: residual activity",98.8%
same,remaining activity at 1 µM,"[5]; PYK2, 1 µM, read-out: residual activity",86.1%
same,remaining activity at 0.2 µM,"[6]; 0.2 µM 2015, read-out: EPHA6 residual activity",87.2%
same,remaining activity at 1 µM,"[6]; 1 µM 2015, read-out: EPHA6 residual activity",85.9%
same,remaining activity at 0.2 µM,"[6]; EPHA6, 0.2 µM, read-out: residual activity",87.2%
same,remaining activity at 1 µM,"[6]; EPHA6, 1 µM, read-out: residual activity",85.9%
same,remaining activity at 0.2 µM,"[7]; 0.2 µM 2015, read-out: MYLK2 residual activity",89.3%
same,remaining activity at 1 µM,"[7]; 1 µM 2015, read-out: MYLK2 residual activity",77.6%
same,remaining activity at 0.2 µM,"[7]; MYLK2, 0.2 µM, read-out: residual activity",89.3%
same,remaining activity at 1 µM,"[7]; MYLK2, 1 µM, read-out: residual activity",77.6%
same,remaining activity at 0.2 µM,"[8]; 0.2 µM 2015, read-out: BMPR1A residual activity",95.6%
same,remaining activity at 1 µM,"[8]; 1 µM 2015, read-out: BMPR1A residual activity",98.5%
same,remaining activity at 0.2 µM,"[8]; BMPR1A, 0.2 µM, read-out: residual activity",95.6%
same,remaining activity at 1 µM,"[8]; BMPR1A, 1 µM, read-out: residual activity",98.5%
